Results taken from patent publication US9192577B2, “Pharmaceutical compositions comprising a basic drug compound, a surfactant, and a physiologically tolerable water soluble acid” (Janssen Pharmaceutica NV, priority 2002, dated 2015).

Key:
[1] = effect of surfactant on solubility and stability of the supersaturated condition (0.01 N HCl, 37° C.); type: physicochemical
Experimental: Aqueous solutions of 2.5% (w/v) of hydroxypropyl-β-cyclodextrin (HPβCD), 2.5% (w/v) of Vit E TPGS [2], 2.5% (w/v) Cremophor RH 40 [3], 2.5% (w/v) of sodium lauryl sulfate or 2.5% (w/v) of PEG 4000 [5] in 0.01 N HCl at 37° C. were prepared.
To 10 ml of these solutions, with stirring, a concentrated solution of R278474 or R165335 in N,N-dimethylformamide (100 mg/ml) was added dropwise until precipitation of the drug compound was observed. After 5, 30, 60 and 120 minutes, the concentration of dissolved R278474 or R165335 expressed in mg % (i.e. the number of mg dissolved in 100 ml) was determined.

HIV = test: in vitro anti-HIV assay: inhibition of HIV-induced cytopathic effect in MT-4 cells (MTT); type: cell-based; conditions: for pSI: pSI = pCC50-pIC50 (selectivity index CC50/IC50); for IC50: Human immunodeficiency virus 1, MT4, −log IC50, 50% protection against HIV-induced cytopathic effect in MT-4 cells, MTT
Experimental: (§1) A rapid, sensitive and automated assay procedure was used for the in vitro evaluation of anti-HIV agents. […] Inhibition of the HIV-induced cytopathic effect was used as the end point. The viability of both HIV- and mock-infected cells was assessed spectrophotometrically via the in situ reduction of 3-(4,5-dimethylthiazol-2-yl)-2,5-diphenyltetrazolium bromide (MTT). The 50% cytotoxic concentration (CC50 in M) was defined as the concentration of compound that reduced the absorbance of the mock-infected control sample by 50%. The percent protection achieved by the compound in HIV-infected cells was calculated by the following formula:
(§2) [formula] whereby (ODT)HIV is the optical density measured with a given concentration of the test compound in HIV-infected cells; (ODC)HIV is the optical density measured for the control untreated HIV-infected cells; (ODC)MOCK is the optical density measured for the control untreated mock-infected cells; all optical density values were determined at 540 nm. The dose achieving 50% protection according to the above formula was defined as the 50% inhibitory concentration (IC50 in M). The ratio of CC50 to IC50 was defined as the selectivity index (SI).

[2] = cytotoxicity (CC50) in mock-infected MT-4 cells (MTT); type: cell-based; conditions: human, mock-infected MT-4 cells, −log CC50, MTT
Experimental: as §1, §2

[3] = [1] 2.5% (w/v) HPβCD in 0.01 N HCl, 5 minutes
[4] = [1] 2.5% (w/v) HPβCD in 0.01 N HCl, 30 minutes
[5] = [1] 2.5% (w/v) HPβCD in 0.01 N HCl, 60 minutes
[6] = [1] 2.5% (w/v) HPβCD in 0.01 N HCl, 120 minutes
[7] = [5] 2.5% (w/v) PEG 4000 in 0.01 N HCl, 5 minutes
[8] = [5] 2.5% (w/v) PEG 4000 in 0.01 N HCl, 30 minutes
[9] = [5] 2.5% (w/v) PEG 4000 in 0.01 N HCl, 60 minutes
[10] = [5] 2.5% (w/v) PEG 4000 in 0.01 N HCl, 120 minutes

| melting point [°C] | SMILES | pSI (HIV) | CC50 [2] [µM] | other results |
| --- | --- | --- | --- | --- |
| – | Cc1cc(C=CC#N)cc(C)c1Nc1ccnc(Nc2ccc(C#N)cc2)n1 [Compound R278474, 4-[[4-[[4-(2-cyanoethenyl)-2,6-dimethylphenyl]amino]-2-pyrimidinyl]amino]benzonitrile] | – | – | concentration of dissolved drug ([1]; 0.01N HCl, 5 minutes): 18.02 mg %; concentration of dissolved drug ([1]; 0.01N HCl, 30 minutes): 16.30 mg %; concentration of dissolved drug ([1]; 0.01N HCl, 60 minutes): 15.90 mg %; concentration of dissolved drug ([1]; 0.01N HCl, 120 minutes): 15.95 mg %; concentration of dissolved drug [1, 3]: 27.68 mg %; concentration of dissolved drug [1, 4]: 24.80 mg %; concentration of dissolved drug [1, 5]: 24.40 mg %; concentration of dissolved drug [1, 6]: 24.10 mg %; concentration of dissolved drug ([1]; [2] 2.5% (w/v) Vit E TPGS in 0.01 N HCl, 5 minutes): 91.75 mg %; concentration of dissolved drug ([1]; [2] 2.5% (w/v) Vit E TPGS in 0.01 N HCl, 30 minutes): 83.50 mg %; concentration of dissolved drug ([1]; [2] 2.5% (w/v) Vit E TPGS in 0.01 N HCl, 60 minutes): 76.25 mg %; concentration of dissolved drug ([1]; [2] 2.5% (w/v) Vit E TPGS in 0.01 N HCl, 120 minutes): 75.25 mg %; concentration of dissolved drug [1, 7]: 23.60 mg %; concentration of dissolved drug [1, 8]: 21.60 mg %; concentration of dissolved drug [1, 9]: 20.60 mg %; concentration of dissolved drug [1, 10]: 20.10 mg % |
| – | Cc1cc(C(O)CC#N)cc(C)c1Nc1ccnc(Nc2ccc(C#N)cc2)n1 (centres unmarked) [Compound 18] | −4.0 | 12.6 | – |
| – | CC(=O)c1cccc(-c2cc(C)c(Nc3ccnc(Nc4ccc(C#N)cc4)n3)c(C)c2)c1 [Compound 34] | −3.2 | 15.8 | – |
| – | Cc1cc(/C=C/C(=O)N2CC=CC2)cc(C)c1Oc1ccnc(Nc2ccc(C#N)cc2)n1 [Compound 209] | −3.7 | 12.6 | – |
| – | Cc1cc(/C=C/C(=O)N(C)C2CCN(C)CC2)cc(C)c1Oc1ccnc(Nc2ccc(C#N)cc2)n1 [Compound 210] | −3.5 | 15.8 | – |
| – | Cc1cc(C#N)cc(C)c1Oc1nc(Nc2ccc(C#N)cc2)nc(N)c1Br [Compound R165335, 4-[[6-amino-5-bromo-2-[(4-cyanophenyl)amino]-4-pyrimidinyl]oxy]-3,5-dimethylbenzonitrile] | – | – | concentration of dissolved drug [1, 3]: 0.04 mg %; concentration of dissolved drug [1, 4]: 0.12 mg %; concentration of dissolved drug [1, 5]: 0.17 mg %; concentration of dissolved drug [1, 6]: 0.07 mg %; concentration of dissolved drug ([1]; [3] 2.5% (w/v) Cremophor RH 40 in 0.01 N HCl, 5 minutes): 54.20 mg %; concentration of dissolved drug ([1]; [3] 2.5% (w/v) Cremophor RH 40 in 0.01 N HCl, 30 minutes): 24.88 mg %; concentration of dissolved drug ([1]; [3] 2.5% (w/v) Cremophor RH 40 in 0.01 N HCl, 60 minutes): 20.06 mg %; concentration of dissolved drug ([1]; [3] 2.5% (w/v) Cremophor RH 40 in 0.01 N HCl, 120 minutes): 18.44 mg %; concentration of dissolved drug ([1]; [4] 2.5% (w/v) sodium lauryl sulfate in 0.01 N HCl, 5 minutes): 35.09 mg %; concentration of dissolved drug ([1]; [4] 2.5% (w/v) sodium lauryl sulfate in 0.01 N HCl, 30 minutes): 37.85 mg %; concentration of dissolved drug ([1]; [4] 2.5% (w/v) sodium lauryl sulfate in 0.01 N HCl, 60 minutes): 38.80 mg %; concentration of dissolved drug ([1]; [4] 2.5% (w/v) sodium lauryl sulfate in 0.01 N HCl, 120 minutes): 38.35 mg %; concentration of dissolved drug [1, 7]: 0.02 mg %; concentration of dissolved drug [1, 8]: 0.04 mg %; concentration of dissolved drug [1, 9]: 0.07 mg %; concentration of dissolved drug [1, 10]: 0.04 mg % |
| 120 | Cc1cc(/C=C/c2cccnc2)cc(C)c1Nc1ccnc(Nc2ccc(C#N)cc2)n1 | – | – | – |
| 250 | Cc1cc(/C=C\Cl)cc(C)c1Nc1ccnc(Nc2ccc(C#N)cc2)n1 | – | – | – |
| – | Cc1cc(/C(Cl)=C\C#N)cc(C)c1Nc1ccnc(Nc2ccc(C#N)cc2)n1 [Compound 124] | −3.8 | 20 | – |
| – | Cc1cc(CCC#N)cc(C)c1Nc1ccnc(Nc2ccc(C#N)cc2)n1 [Compound 24] | −3.4 | 2 | – |
| 223 | Cc1cc(C=C(Br)Br)cc(C)c1Nc1ccnc(Nc2ccc(C#N)cc2)n1 | – | – | – |
| 212 | CCCCN(C)C(=O)/C=C/c1cc(C)c(Oc2ccnc(Nc3ccc(C#N)cc3)n2)c(C)c1 | – | – | – |
| – | Cc1cc(/C=C(\C#N)c2cccs2)cc(C)c1Nc1ccnc(Nc2ccc(C#N)cc2)n1 [Compound 49] | −3.2 | 15.8 | – |
| 140 | CCOCc1ccc(Oc2ccnc(Nc3ccc(C#N)cc3)n2)c(C)c1 [Compound 105] | <−3.2 | > 100 | – |
| – | Cc1cc(-c2ccsc2)cc(C)c1Nc1ccnc(Nc2ccc(C#N)cc2)n1 [Compound 21] | −3.5 | 12.6 | – |
| > 260 | Cc1cc(-c2ccc(C#N)o2)cc(C)c1Nc1ccnc(Nc2ccc(C#N)cc2)n1 [Compound 126] | −3.5 | 12.6 | – |
| – | CO/N=C(\c1cc(C)c(Nc2ccnc(Nc3ccc(C#N)cc3)n2)c(C)c1)C(C)C [Compound 9] | −4 | 15.8 | – |

| melting point [°C] | SMILES | pSI (HIV) | CC50 [2] [µM] | other results |
| --- | --- | --- | --- | --- |
| 132 | Cc1ccc(N(C)C)c(C)c1Nc1ccnc(Nc2ccc(C#N)cc2)n1 | – | – | – |
| 150 | Cc1cc(C(=O)CC#N)cc(C)c1Nc1ccnc(Nc2ccc(C#N)cc2)n1 | – | – | – |
| – | CCN(Cc1ccncc1)Cc1cc(C)c(Nc2ccnc(Nc3ccc(C#N)cc3)n2)c(C)c1 [Compound 79] | −2.7 | 5.01 | – |
| – | C/C(C#N)=C/c1cc(C)c(Nc2ccnc(Nc3ccc(C#N)cc3)n2)c(C)c1 [Compound 11] | −3.5 | 2 | IC50 (HIV): 0.000631 µM |
| – | Cc1cc(/C=C/C(=O)N2CCN(C)CC2)cc(C)c1Nc1ccnc(Nc2ccc(C#N)cc2)n1 [Compound 155] | −2.5 | 0.501 | – |
| 254 | Cc1cc(/C=C(/F)C#N)cc(C)c1Nc1ccnc(Nc2ccc(C#N)cc2)n1 [Compound 110] | −4.3 | – | IC50 (HIV): 0.00251 µM |
| 193 | Cc1cc(/C=C(/C#N)C(=O)C(C)(C)C)cc(C)c1Nc1ccnc(Nc2ccc(C#N)cc2)n1 [Compound 106] | −2.5 | 6.31 | – |
| – | Cc1cc(/C=C/c2cccnc2)cc(C)c1Nc1ccnc(Nc2ccc(C#N)cc2)n1 [Compound 145] | −3.4 | 5.01 | – |
| – | Cc1cc(CN2CCSC2)cc(C)c1Nc1ccnc(Nc2ccc(C#N)cc2)n1 [Compound 78] | −3.5 | 12.6 | – |
| 168 | Cc1cc(/C=C/C(=O)N(C)CCC#N)cc(C)c1Nc1ccnc(Nc2ccc(C#N)cc2)n1 [Compound 114] | −3.5 | 7.94 | – |
| – | Cc1cc(-n2cccc2)cc(C)c1Oc1ccnc(Nc2ccc(C#N)cc2)n1 [Compound 118] | <−4.1 | 79.4 | – |
| – | Cc1cc(/C=C/C(=O)N2CCOCC2)cc(C)c1Oc1ccnc(Nc2ccc(C#N)cc2)n1 [Compound 216] | −3.6 | 10 | – |
| > 264 | Cc1cc(/C=C/C(=O)N(C)C)cc(C)c1Nc1ccnc(Nc2ccc(C#N)cc2)n1 [Compound 112] | −4.2 | 12.6 | – |
| – | Cc1cc(Cn2ccnc2)cc(C)c1Nc1ccnc(Nc2ccc(C#N)cc2)n1 [Compound 70] | −3.3 | 15.8 | – |
| – | Cc1cc(/C=C/C(=O)N2CCOCC2)cc(C)c1Nc1ccnc(Nc2ccc(C#N)cc2)n1 [Compound 156] | −2.6 | 7.94 | – |
| – | Cc1cc(-c2ccco2)cc(C)c1Nc1ccnc(Nc2ccc(C#N)cc2)n1 [Compound 3] | −2.9 | 3.16 | – |
